The source of these data is publication PMC12057336 (Antimicrobial Agents and Chemotherapy, 2025).

Like-named read-outs stand apart in the source and are kept apart here.

For one series, the system named is primary rat hepatocytes. The following applies: for substrate stability in control incubation: absence of hepatocytes; for substrate stability in control incubation / remaining percentage: 1 µM; for remaining percentage: freshly isolated normal rat hepatocytes; for remaining percentage / decrease of formation compared to normal rat hepatocytes: 6 h; for decrease of formation compared to normal rat hepatocytes: linezolid 1 µM. The protocol:
Primary rat hepatocytes were isolated from normal, CCl4-induced, and 5/6 Nx rats according to the previously described two-step collagenase method ([36]). Rats were anesthetized with urethane (1 g/kg), their abdomens were opened, and their portal veins were cannulated with a needle. The liver was perfused with HBSS solution (without calcium and magnesium ions) containing 5 mM EGTA at a rate of 50–60 mL/min using a peristaltic pump until the blood in the liver was removed. HBSS solution containing 7.5 mg/50 mL collagenase was perfused for 20 min until the liver was completely softened and the surface collapsed. The liver was gently removed and placed in a precooled HBSS solution containing 10% FBS. Hepatocytes were eluted and centrifuged at 500 × g for 5 min, and the supernatant was removed to obtain primary rat hepatocytes. Isolated primary rat hepatocytes were washed three times and suspended in DMEM containing 10% FBS, 100 µg/mL streptomycin, 100 U/ml penicillin, and 10 µg/mL insulin at pH 7.65.
Freshly isolated rat hepatocytes at a density of 1.0 × 10^6 cells/well were placed in plates pre-coated with collagen and incubated for 18–24 h in a humidified incubator at 37°C and 5% CO2. […] Control incubations were performed in the absence of hepatocytes to test the substrate stability. Three replicate samples (1 mL each) were collected after 1, 2, 4, and 6 h of incubation. Then, 800 µL of methanol was immediately added, and the samples were transferred to a freezer (−20°C) to terminate metabolism. Hepatocytes were quickly washed three times with ice-cold HBSS and then lysed by the addition of 300 µL of purified water.
An AB Sciex 4000 Mass Spectrometer (AB Sciex, Framingham, MA, USA) and Shimadzu LC 20 series (Shimadzu, Kyoto, Japan) were used for HPLC-MS/MS. […] The Phenomenex Synergi Hydro-RP column (30 mm × 2 mm, 4 µm, Phenomenex Inc., Torrance, CA, USA) was used for chromatographic separation. The mobile phase consisted of 0.1% (vol/vol) formic acid in water (A) and 0.1% (vol/vol) formic acid in acetonitrile (B). The gradient conditions were as follows: 0–1.4 min, 15%–80% B; 1.4–1.8 min, 80% B; 1.8–1.81 min, return to 15% B; 1.81–2.1 min, equilibrium. The flow rate was 450 µL/min. Data acquisition and analysis were performed using the Analyst software (version 1.4.1, AB Sciex).
(§1) Atotal is the total cumulative amount excreted in urine over 24 h. D is the administered dose. The scale factor is 4,680 (10^6 cells/kg). All data are expressed as mean ± standard deviation (SD). Statistical analysis was performed using Student’s two-tailed unpaired t-test or nonparametric Mann-Whitney U test with SPSS Statistics 19.0 (SPSS Inc., Chicago, IL, USA). Statistical significance was set at P < 0.05.

A short description of series [1]: Serum biochemical parameters of CCl4-induced rats. The series is classed as in vivo, rat.
The nature of a further series: in vivo. The note with it: rat, in vivo; for half-life: t1/2.
Description: The control group rats were intraperitoneally injected with equal volumes of soybean oil. […] The upper and lower poles of the left kidney were removed under urethane anesthesia (1 g/kg; administered by i.p. injection). One week later, the right kidney was completely excised. Rats in the control group underwent a sham operation ([35]). Serum creatinine (CREA), blood urea nitrogen (BUN), aspartate aminotransferase (AST), alanine aminotransferase (ALT), alkaline phosphatase (ALP), lactate dehydrogenase (LDH), and total bilirubin (TBIL) levels were measured using commercial kits (Shanghai Enzyme-linked Biotechnology Co., Ltd., Shanghai, China) according to the protocols described by the manufacturer before pharmacokinetic experiments.
The rats were first divided into two groups: i.v. or i.g. administration groups. These two groups were further divided into the following four subgroups (n = 5): soybean oil-treated control rats, CCl4-induced rats, sham-operated control rats, and 5/6 Nx rats. […] Blood samples (200 µL) were collected from the retro-orbital venous plexus into heparinized tubes at 0 (pre-dose), 0.25, 0.5, 0.75, 1, 2, 3, 4, 6, 8, 12, and 24 h after i.g. administration, and at 0 (pre-dose), 0.083, 0.25, 0.5, 0.75, 1, 2, 3, 4, 6, 8, 12, and 24 h after i.v. administration. Plasma samples were separated by centrifugation at 6,000 × g for 5 min at 4°C and stored at −80°C until further analysis using HPLC.
Chromatographic separation was performed using the SinoPak BEH T-C18 column (4.6 mm × 150 mm, 5 µm, Hi-tech Zone, China) at 35°C. A photodiode array detector was set at a wavelength of 254 nm. The mobile phase consisted of 0.1% (vol/vol) formic acid in water (A) and acetonitrile (B). The gradient conditions were as follows: 0–4.0 min, 14%–86% B; 4.0–5.0 min, […]; 5.0–5.7 min, return to 14% B; 5.7–8.0 min, equilibrium. The flow rate was 1.0 mL/min.
Plasma and tissue homogenate samples (100 µL) were mixed with 10 µL of IS (50.0 mg/L) and 200 µL of acetonitrile, followed by vortex-mixing for 3 min. The mixture was centrifuged at 15,000 × g for 15 min at 4°C. Then, 5 µL of the supernatant was analyzed. The urine samples were diluted and directly injected for measurement.
The area under the plasma concentration-time curve from 0 to infinity (AUC0-∞), time to maximum concentration (tmax), Cmax, t1/2, CL, and Vd were calculated by non-compartmental model analysis using the Phoenix 8.1.0 WinNonlin software (Pharsight Corp, Princeton, NJ, USA). The renal clearance (CLr), in vitro hepatic clearance (CLint, in vitro), and bioavailability (F) were calculated using the following equations:
F (%) = Div×AUC0−∞, ig/Dig×AUC0−∞, iv
as §1

Series [2] can be described thus: Tissue distribution after i.g. or i.v. linezolid in control, CCl4-induced and 5/6 Nx rats. Format: in vivo, rat. The following applies: after i.g. or i.v. linezolid; LLOQ 0.25 mg/L. The text has this:
These two groups were further divided into the following three subgroups (n = 4): control rats, CCl4-induced rats, and 5/6 Nx rats. […] The rats were euthanized immediately after blood sampling. The brain, heart, lungs, liver, kidneys, and small intestine were collected. The collected tissues were washed and homogenized in normal saline (three-fold volume of each sample weight) using a multi-sample tissue grinder (Tissuelyser-48L; Shanghai Jingxin Industrial Development Co. Ltd., Shanghai, China). After centrifugation of the homogenate samples at 12,000 × g for 10 min at 4°C, the supernatants were stored at −80°C.
The flow rate was 1.0 mL/min.
Then, 5 µL of the supernatant was analyzed.

For the next series, the system named is megakaryocytic cells. The note with it: cited from earlier work.
For series [3] the following is noted: cited from earlier work.

On to `O=c1ccc2ccc(O)cc2o1` [7-hydroxycoumarin], for which, in the series on primary rat hepatocytes, the “substrate stability in control incubation” value is on record as “No reductions” and the remaining percentage was under 5%.
In the case of `ClC(Cl)(Cl)Cl` [CCl4, Carbon tetrachloride], in series [1], the “serum ALT relative to soybean oil-treated control rats” value came out at 6.92 fold, the “serum AST relative to soybean oil-treated control rats” value was determined as 10.7 fold, the “serum LDH relative to soybean oil-treated control rats” value turned out to be 1.86 fold and the “serum TBIL relative to soybean oil-treated control rats” value is on record as 8.40 fold. In series [1] (2.5 mL/kg i.p., 24 h, serum), this compound gave an ALP of 257.1 ± 94.3 U/L, an ALT of 418.8 ± 129.4 U/L, an AST of 2399.5 ± 203.2 U/L and a CREA of 17.1 ± 7.3 µmol/L. In addition, in series [1] (2.5 mL/kg i.p., 24 h, serum), the LDH turned out to be 2477.6 ± 220.8 U/L and the TBTL worked out at 4.2 ± 2.0 µmol/L.
Broadly, the Cmax is the highest concentration seen after dosing. A word on the half-life: it is how long it takes for the measured level to halve. High values mean slow decline, low ones rapid decline. Broadly, the Tmax is the time from dosing to the highest level. For the compound `CC(=O)NC[C@H]1CN(c2ccc(N(CCO)CC(=O)O)c(F)c2)C(=O)O1` [PNU-142586], in “in vivo” (Sprague-Dawley), the “decrease of CLr in comparison to sham-operated control rats” value turned out to be 33.3% and the “share of the total plasma concentrations” value was 5.6–8.5%. In the series “in vivo” (Sprague-Dawley, iv), the “AUC0-∞ relative to sham-operated control rats” value was found to be 2.82 fold, the “decrease of AUC0-∞ compared to soybean oil-treated control rats” value is reported as 13.6%, the “decrease of CLr in comparison to sham-operated control rats” value came out at 33.3% and the “t1/2 relative to control rats” value is 1.41 fold. The “t1/2 relative to sham-operated control rats” value in the series “in vivo” (Sprague-Dawley, iv) is 1.53 fold. Moreover, in the series “in vivo” (Sprague-Dawley, iv, 25 mg/kg), the Cmax worked out at 1690 ± 230 ng/mL and the half-life was 2.11 ± 0.42 h. For the same compound, in the series “in vivo” (Sprague-Dawley, po), the “AUC0-∞ relative to sham-operated control rats” value was found to be 1.88 fold, the “decrease of AUC0-∞ compared to soybean oil-treated control rats” value was found to be 10.4%, the “t1/2 relative to control rats” value stood at 1.32 fold and the “t1/2 relative to sham-operated control rats” value is on record as 1.15 fold. In addition, in “in vivo” (Sprague-Dawley, po, 63 mg/kg), the peak level (Cmax) was 1860 ± 210 ng/mL and the half-life is 4.31 ± 0.52 h. Besides, the Tmax in the series “in vivo” (Sprague-Dawley, po, 63 mg/kg, tmax) is 2.8 ± 0.45 h. Further, the “cumulative urinary excretion rate” value in the series “in vivo” is recorded as 3.5%. Also, the “detection in brain, heart, lung, liver, kidney, or small intestine tissues” value in series [2] is listed as “No PNU-142586 was detected”. Also, the “decrease of formation compared to normal rat hepatocytes” value with primary rat hepatocytes (5/6 Nx rat hepatocytes) turned out to be 28.9%. Also, in the series on primary rat hepatocytes (hepatocytes from CCl4-induced rats), the “decrease of formation compared to normal rat hepatocytes” value is listed as 95.6%. The “cytotoxic effects on platelet precursor cell lines” value in the series on megakaryocytic cells is “cytotoxic effects”. The “accumulation in patients with renal failure” value in series [3] is reported as “accumulated”. Further, the “share of dosed linezolid in the urine” value in series [3] (humans) is “more than 30%”.
Regarding `C[C@]12CC[C@H]3[C@@H](CCC4=CC(=O)CC[C@@]43C)[C@@H]1CC[C@@H]2O` [testosterone], in the series with primary rat hepatocytes, the “substrate stability in control incubation” value is reported as “No reductions” and the remaining percentage entry is recorded as “less than 2%”.
